Reference: patent US20240239759A1, “ISOXAZOLINE COMPOSITIONS AND THEIR USE AS ANTIPARASITICS” (Intervet Inc., priority 2007, published 2024)
Several values for one entry are separate records, joined by “and”; a condition that tells them apart may be missing. Identical values can stand only once.

Key:
[1] = test system: cat fleas (Ctenocephalides felis); experiment: Adult fleas fed on artificial membranes with spiked blood (Example 1); conditions: 48 hr continuous feeding
Description: Adult fleas (20-30) were fed on artificial membranes with blood spiked with Compound 10-1, Compound 11-1, or a positive control (fipronil) at a concentration of 100, 10, or 1 ppm. Flea efficacy was assessed after 48 hr of continuous feeding by comparing the number of killed and damaged fleas with the number of fed fleas. Flea efficacy was 100% for Compound 10-1, Compound 11-1, and fipronil at 100, 10, and 1 ppm.

adult fleas (C. felis) = experiment: Efficacy against fleas on mice (Example 2A); assay type: in vivo, Ctenocephalides felis
Description: (§1) Mice were divided into groups of three, and treated topically with 100 ppm body weight, orally with 10 mg/kg bodyweight, or subcutaneously with 10 mg/kg bodyweight of Compound 11-1, fipronil (positive control), or nothing (negative control). These mice were sedated and infested with adult fleas (C. felis) 1, 3, 6, and 24 hr after treatment. Fleas were recovered from the mice after approximately 30 minutes of feeding. The assessment of flea inhibition (% of dead and damaged fleas) was conducted 1 and 24 hr after each infestation.

M. musculinus = experiment: Efficacy against mites on mice (Example 2B); assay type: in vivo, Myocoptes musculinus; design: key: “+”=low infestation rate; “++”=medium infestation rate; “+++”=high infestation rate; conditions: repeated 7 days later
Description: The mice were divided into groups of three, and treated topically with 100 ppm body weight, orally with 10 mg/kg body weight, or subcutaneously with 10 mg/kg body weight of Compound 11-1, fipronil (positive control), or nothing (negative control). This treatment was then repeated 7 days later. The infestation rate per mouse (“+”=low infestation rate, “++”=medium infestation rate, “+++”=high infestation rate) was assessed repeatedly on days 1, 6, 9, 13, and 23. Efficacy was defined as the inhibition of the mite infestation rate on treated mice relative to the negative control group.

[2] = test system: juvenile soft ticks (O. moubata); experiment: Efficacy against soft (Argaside) ticks on Guinea pigs (Example 2C); assay type: in vivo, Ornithodoros moubata; conditions: Guinea pig, up to Day 50
Description: (§2) Six Guinea pigs were treated orally, subcutaneously, or intraperitoneally with 10 mg/kg bodyweight of Compound 11-1 or fipronil (positive control). The Guinea pigs were locally co-infested with juvenile soft ticks (O. moubata) and bed bugs (C. lectularius) once before the treatment, and at different time points after treatment between days 2 and 50. Ten engorged ticks/bed bugs were collected to assess the percentage of killed individuals per species 24 hr after each infestation.
(§3) For Guinea pigs treated with Compound 11-1, the ticks and bed bugs died within 1 to 5 hr following infestation up to Day 29, and within 8 to 24 hr after day 29. For Guinea pigs treated with fipronil, ticks and bed bugs died within 1 to 7 hr after infestation up to Day 29, and within 8 to 24 hr after day 29.

[3] = test system: bed bugs (C. lectularius); experiment: Efficacy against bed bugs on Guinea pigs (Example 2C); assay type: in vivo, Cimex lectularius; conditions: Guinea pig
Description: as §2, §3

[4] = test system: brown dog ticks, R. sanguineus (nymphs); experiment: Efficacy against hard (Ixodide) ticks on Guinea pigs (Example 2D); assay type: in vivo, Rhipicephalus sanguineus; conditions: all treated groups of Study 1 (100 ppm dip, 10 mg/kg oral, 10 mg/kg subcutaneous) and Study 2 (25 ppm dip, 2.5 mg/kg oral, 2.5 mg/kg subcutaneous), Day 4 to Day 8
Description: (§4) Guinea pigs were divided into groups of three. Each group was subjected to one of the following treatments with either Compound 11-1, fipronil (positive control), or neither (negative control):
(§5) • 1. 100 ppm body weight topical administration by animal dip • 2. 10 mg/kg body weight oral administration • 3. 10 mg/kg body weight subcutaneous administration • 4. No treatment (negative control)
(§6) • 1. 25 ppm body weight topical administration by animal dip • 2. 2.5 mg/kg body weight oral administration • 3. 2.5 mg/kg body weight subcutaneous administration • 4. No treatment (negative control) One day before the treatment, all the Guinea pigs were infested with 100 vital juvenile (“nymph”) hard ticks (brown dog ticks, R. sanguineus). Engorged, detached nymphs were counted (eN) from Day 4 to Day 8 to calculate the efficacy of the treatments according to following formula: […]
In addition, collected ticks were assessed for molting into the next stage.

[5] = Side effects in mice, flea study (Example 2A); assay type: in vivo; conditions: topical 100 ppm, oral or subcutaneous 10 mg/kg
Description: as §1

[6] = Side effects in Guinea pigs, soft tick and bed bug study (Example 2C); assay type: in vivo; conditions: Guinea pigs; oral, subcutaneous or intraperitoneal 10 mg/kg
Description: as §2

[7] = Side effects in Guinea pigs, hard tick studies (Example 2D); assay type: in vivo; conditions: guinea pig, in vivo
Description: as §4, §5, §6
In the first study, 32 engorged R. sanguineus nymphs were collected from animals of the untreated negative control group. And in the second study, 75 engorged R. sanguineus nymphs were collected from animals of the untreated negative control group. […] Thus, the inhibition of engorged nymphs for both Compound 11-1 and fipronil was 100%.

N#Cc1nn(-c2c(Cl)cc(C(F)(F)F)cc2Cl)c(N)c1[S+]([O-])C(F)(F)F (centres unmarked) [fipronil, reference compound]
Flea efficacy ([1]; blood spiked at 1 ppm): 100%
Flea efficacy ([1]; blood spiked at 10 ppm): 100%
Flea efficacy ([1]; blood spiked at 100 ppm): 100%
Flea inhibition (% of dead and damaged fleas) (adult fleas (C. felis); oral 10 mg/kg, infested 1 hr after treatment, assessed 1 hr after infestation): 0-2%
Flea inhibition (% of dead and damaged fleas) (adult fleas (C. felis); oral 10 mg/kg, infested 1 hr after treatment, assessed 24 hr after infestation): 3.3%
Flea inhibition (% of dead and damaged fleas) (adult fleas (C. felis); oral 10 mg/kg, infested 3 hr after treatment, assessed 1 hr after infestation): 0-2%
Flea inhibition (% of dead and damaged fleas) (adult fleas (C. felis); oral 10 mg/kg, infested 3 hr after treatment, assessed 24 hr after infestation): 12.3%
Flea inhibition (% of dead and damaged fleas) (adult fleas (C. felis); oral 10 mg/kg, infested 6 hr after treatment, assessed 1 hr after infestation): 0-2%
Flea inhibition (% of dead and damaged fleas) (adult fleas (C. felis); oral 10 mg/kg, infested 6 hr after treatment, assessed 24 hr after infestation): 6.7%
Flea inhibition (% of dead and damaged fleas) (adult fleas (C. felis); oral 10 mg/kg, infested 24 hr after treatment, assessed 1 hr after infestation): 0-2%
Flea inhibition (% of dead and damaged fleas) (adult fleas (C. felis); oral 10 mg/kg, infested 24 hr after treatment, assessed 24 hr after infestation): 7.7%
Flea inhibition (% of dead and damaged fleas) (adult fleas (C. felis); subcutaneous 10 mg/kg, infested 1 hr after treatment, assessed 1 hr after infestation): 0-2%
Flea inhibition (% of dead and damaged fleas) (adult fleas (C. felis); subcutaneous 10 mg/kg, infested 1 hr after treatment, assessed 24 hr after infestation): 1.0%
Flea inhibition (% of dead and damaged fleas) (adult fleas (C. felis); subcutaneous 10 mg/kg, infested 3 hr after treatment, assessed 1 hr after infestation): 0-2%
Flea inhibition (% of dead and damaged fleas) (adult fleas (C. felis); subcutaneous 10 mg/kg, infested 3 hr after treatment, assessed 24 hr after infestation): 15.7%
Flea inhibition (% of dead and damaged fleas) (adult fleas (C. felis); subcutaneous 10 mg/kg, infested 6 hr after treatment, assessed 1 hr after infestation): 0-2%
Flea inhibition (% of dead and damaged fleas) (adult fleas (C. felis); subcutaneous 10 mg/kg, infested 6 hr after treatment, assessed 24 hr after infestation): 97.7%
Flea inhibition (% of dead and damaged fleas) (adult fleas (C. felis); subcutaneous 10 mg/kg, infested 24 hr after treatment, assessed 1 hr after infestation): 0-2%
Flea inhibition (% of dead and damaged fleas) (adult fleas (C. felis); subcutaneous 10 mg/kg, infested 24 hr after treatment, assessed 24 hr after infestation): 94.3%
Flea inhibition (% of dead and damaged fleas) (adult fleas (C. felis); topical 100 ppm body weight, infested 1 hr after treatment, assessed 1 hr after infestation): 0-2%
Flea inhibition (% of dead and damaged fleas) (adult fleas (C. felis); topical 100 ppm body weight, infested 1 hr after treatment, assessed 24 hr after infestation): 100%
Flea inhibition (% of dead and damaged fleas) (adult fleas (C. felis); topical 100 ppm body weight, infested 3 hr after treatment, assessed 1 hr after infestation): 0-2%
Flea inhibition (% of dead and damaged fleas) (adult fleas (C. felis); topical 100 ppm body weight, infested 3 hr after treatment, assessed 24 hr after infestation): 94.3%
Flea inhibition (% of dead and damaged fleas) (adult fleas (C. felis); topical 100 ppm body weight, infested 6 hr after treatment, assessed 1 hr after infestation): 0-2%
Flea inhibition (% of dead and damaged fleas) (adult fleas (C. felis); topical 100 ppm body weight, infested 6 hr after treatment, assessed 24 hr after infestation): 100%
Flea inhibition (% of dead and damaged fleas) (adult fleas (C. felis); topical 100 ppm body weight, infested 24 hr after treatment, assessed 1 hr after infestation): 0-2%
Flea inhibition (% of dead and damaged fleas) (adult fleas (C. felis); topical 100 ppm body weight, infested 24 hr after treatment, assessed 24 hr after infestation): 76.7%
Mite infestation rate per mouse (M. musculinus; oral 10 mg/kg, Day 1): +++
Mite infestation rate per mouse (M. musculinus; oral 10 mg/kg, Day 6): ++ to +++
Mite infestation rate per mouse (M. musculinus; oral 10 mg/kg, Day 9): ++ to +++
Mite infestation rate per mouse (M. musculinus; oral 10 mg/kg, Day 13): +
Mite infestation rate per mouse (M. musculinus; oral 10 mg/kg, Day 23): +
Mite infestation rate per mouse (M. musculinus; subcutaneous 10 mg/kg, Day 1): +++
Mite infestation rate per mouse (M. musculinus; subcutaneous 10 mg/kg, Day 6): 2 mice: + to ++ and 1 mouse: +++
Mite infestation rate per mouse (M. musculinus; subcutaneous 10 mg/kg, Day 9): 2 mice: + to ++ and 1 mouse: +++
Mite infestation rate per mouse (M. musculinus; subcutaneous 10 mg/kg, Day 13): +
Mite infestation rate per mouse (M. musculinus; subcutaneous 10 mg/kg, Day 23): + to ++
Mite infestation rate per mouse (M. musculinus; topical 100 ppm body weight, Day 1): 2 mice: + to ++ and 1 mouse: +++ (all
Mite infestation rate per mouse (M. musculinus; topical 100 ppm body weight, Day 6): + to ++
Mite infestation rate per mouse (M. musculinus; topical 100 ppm body weight, Day 9): 2 mice: none and 1 mouse: +
Mite infestation rate per mouse (M. musculinus; topical 100 ppm body weight, Day 13): none
Mite infestation rate per mouse (M. musculinus; topical 100 ppm body weight, Day 23): none
Efficacy against soft ticks (killed 24 hr after infestation) ([2]; intraperitoneal 10 mg/kg): 100% efficacy was observed up to Day 50.
Efficacy against soft ticks (killed 24 hr after infestation) ([2]; oral 10 mg/kg): 100% efficacy was observed up to Day 50.
Efficacy against soft ticks (killed 24 hr after infestation) ([2]; subcutaneous 10 mg/kg): 100% efficacy was observed up to Day 50.
Efficacy against bed bugs (killed 24 hr after infestation) ([3]; intraperitoneal 10 mg/kg, up to Day 18): 100% efficacy was observed up to Day 18.
Efficacy against bed bugs (killed 24 hr after infestation) ([3]; oral 10 mg/kg, up to Day 18): 100% efficacy was observed up to Day 18.
Efficacy against bed bugs (killed 24 hr after infestation) ([3]; subcutaneous 10 mg/kg, on Day 37): up to Day 35. 50% efficacy was observed
Engorged R. sanguineus nymphs collected [4]: no nymphs were collected
Inhibition of engorged nymphs [4]: 100%
Side effects [5]: No side effects were observed
Side effects [6]: No side effects were observed
Side effects [7]: No side effects were observed
